Reference: patent US11180474B2 (BRISTOL-MYERS SQUIBB COMPANY, priority 2016, dated 2021)
pIC50: −log10 of the molar value.

Tests used:
human TLR9 = molecular target: T1, human TLR9 (Homo sapiens, UniProt Q9NR96); assay: TLR9 inhibition reporter assay (HEK-Blue cells, SEAP reporter, ODN2006 stimulation); format: cell-based; conditions: HEK-Blue cells overexpressing human TLR9, ODN2006 5 nM
T1 construct: host or cells: HEK-Blue cells
T1 sequence (Q9NR96 26-1032): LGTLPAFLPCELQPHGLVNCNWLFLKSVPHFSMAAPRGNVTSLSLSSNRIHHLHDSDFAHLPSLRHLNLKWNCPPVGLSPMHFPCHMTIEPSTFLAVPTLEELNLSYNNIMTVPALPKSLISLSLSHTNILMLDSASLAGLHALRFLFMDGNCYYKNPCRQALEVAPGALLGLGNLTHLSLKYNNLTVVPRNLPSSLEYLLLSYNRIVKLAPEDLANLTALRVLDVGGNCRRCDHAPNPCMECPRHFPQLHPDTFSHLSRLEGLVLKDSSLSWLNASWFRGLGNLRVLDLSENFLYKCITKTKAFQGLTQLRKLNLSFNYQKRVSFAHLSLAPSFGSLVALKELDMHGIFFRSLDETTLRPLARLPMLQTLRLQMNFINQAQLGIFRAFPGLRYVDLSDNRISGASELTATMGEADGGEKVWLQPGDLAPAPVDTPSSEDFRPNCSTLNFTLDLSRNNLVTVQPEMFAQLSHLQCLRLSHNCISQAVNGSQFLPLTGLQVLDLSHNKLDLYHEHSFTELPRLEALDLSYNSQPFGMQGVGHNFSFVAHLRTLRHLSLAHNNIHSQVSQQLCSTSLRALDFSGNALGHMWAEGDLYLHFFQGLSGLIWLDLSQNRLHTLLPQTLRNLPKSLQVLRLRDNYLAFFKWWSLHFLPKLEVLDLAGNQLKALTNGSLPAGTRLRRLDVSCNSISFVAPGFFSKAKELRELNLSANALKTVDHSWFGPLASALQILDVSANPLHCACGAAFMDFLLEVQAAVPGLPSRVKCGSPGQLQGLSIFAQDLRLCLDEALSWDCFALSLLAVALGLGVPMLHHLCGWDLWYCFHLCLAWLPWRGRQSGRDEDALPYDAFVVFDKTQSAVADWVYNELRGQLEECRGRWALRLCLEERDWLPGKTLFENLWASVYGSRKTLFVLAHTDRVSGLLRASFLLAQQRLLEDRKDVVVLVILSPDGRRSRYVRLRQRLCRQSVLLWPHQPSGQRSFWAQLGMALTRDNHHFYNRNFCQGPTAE
Experimental: (§1) TLR7/8/9 Inhibition Reporter Assays
HEK-Blue™-cells (Invivogen) overexpressing human TLR7, TLR8 or TLR9 receptors were used for screening inhibitors of these receptors using an inducible SEAP (secreted embryonic alkaline phosphatase) reporter gene under the control of the IFN-β minimal promoter fused to five NF-κB and AP-1-binding sites. Briefly, cells are seeded into Greiner 384 well plates (15000 cells per well for TLR7, 20,000 for TLR8 and 25,000 for TLR9) and then treated with test compounds in DMSO to yield a final dose response concentration range of 0.05 nM-50 μM. After a 30 minute compound pre-treatment at room temperature, the cells are then stimulated with a TLR7 ligand (gardiquimod at a final concentration of 7.5 μM), TLR8 ligand (R848 at a final concentration of 15.9 μM) or TLR9 ligand (ODN2006 at a final concentration of 5 nM) to activate NF-κB and AP-1 which induce the production of SEAP. After a 22 hour incubation at 37° C., 5% CO2, SEAP levels are determined with the addition of HEK-Blue™ Detection reagent (Invivogen), a cell culture medium that allows for detection of SEAP, according to manufacturer's specifications. The percent inhibition is determined as the % reduction in the HEK-Blue signal present in wells treated with agonist plus DMSO alone compared to wells treated with a known inhibitor.

human TLR7 = molecular target: T2, human TLR7 (Homo sapiens, UniProt Q9NYK1); assay: TLR7 inhibition reporter assay (HEK-Blue cells, SEAP reporter, gardiquimod stimulation); format: cell-based; conditions: HEK-Blue cells overexpressing human TLR7, gardiquimod 7.5 μM
T2 construct: host or cells: HEK-Blue cells
T2 sequence (Q9NYK1 27-1049): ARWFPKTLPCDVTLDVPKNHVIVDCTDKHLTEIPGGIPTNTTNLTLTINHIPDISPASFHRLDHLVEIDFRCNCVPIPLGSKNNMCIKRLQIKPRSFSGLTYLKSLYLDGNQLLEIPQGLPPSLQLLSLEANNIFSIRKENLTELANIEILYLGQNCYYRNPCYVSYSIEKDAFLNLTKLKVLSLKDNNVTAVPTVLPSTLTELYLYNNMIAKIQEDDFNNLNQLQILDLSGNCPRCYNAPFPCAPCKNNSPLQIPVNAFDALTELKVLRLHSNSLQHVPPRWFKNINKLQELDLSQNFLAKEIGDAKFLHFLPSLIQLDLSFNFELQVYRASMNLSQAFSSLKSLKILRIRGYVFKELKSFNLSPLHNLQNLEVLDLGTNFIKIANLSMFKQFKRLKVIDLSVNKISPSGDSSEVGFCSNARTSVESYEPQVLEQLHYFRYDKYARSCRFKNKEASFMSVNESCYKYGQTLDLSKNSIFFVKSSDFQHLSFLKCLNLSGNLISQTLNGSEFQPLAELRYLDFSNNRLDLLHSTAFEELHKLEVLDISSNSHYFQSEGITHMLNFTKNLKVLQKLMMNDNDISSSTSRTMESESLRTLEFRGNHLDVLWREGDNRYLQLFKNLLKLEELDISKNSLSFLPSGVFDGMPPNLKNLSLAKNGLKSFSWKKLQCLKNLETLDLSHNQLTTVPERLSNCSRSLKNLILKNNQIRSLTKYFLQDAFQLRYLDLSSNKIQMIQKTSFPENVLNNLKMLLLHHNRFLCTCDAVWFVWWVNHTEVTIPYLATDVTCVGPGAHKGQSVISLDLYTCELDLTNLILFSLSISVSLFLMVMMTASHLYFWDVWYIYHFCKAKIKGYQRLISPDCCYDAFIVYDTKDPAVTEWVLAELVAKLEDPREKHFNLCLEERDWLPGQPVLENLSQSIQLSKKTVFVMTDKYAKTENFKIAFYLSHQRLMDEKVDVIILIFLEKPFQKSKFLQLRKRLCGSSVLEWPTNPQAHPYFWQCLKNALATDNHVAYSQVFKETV
Experimental: as §1
Briefly, cells are seeded into Greiner 384 well plates (15000 cells per well for TLR7, 20,000 for TLR8 and 25,000 for TLR9) and then treated with test compounds in DMSO to yield a final dose response concentration range of 0.05 nM-50 μM. […] After a 22 hour incubation at 37° C., 5% CO2, SEAP levels are determined with the addition of HEK-Blue™ Detection reagent (Invivogen), a cell culture medium that allows for detection of SEAP, according to manufacturer's specifications. The percent inhibition is determined as the % reduction in the HEK-Blue signal present in wells treated with agonist plus DMSO alone compared to wells treated with a known inhibitor.

How did the pIC50 (human TLR9) turn out when `COc1ccc(-c2[nH]c3ccc(C4CCN(C5CCN(CCC(C)O)CC5)CC4)cc3c2C)cc1OC` (stereo not shown) [Example 56, 4-(4-(2-(3,4-dimethoxyphenyl)-3-methyl-1H-indol-5-yl)-[1,4′-bipiperidin]-1′-yl)butan-2-ol] was run?
Its pIC50 is 6.66.

And the pIC50 (human TLR7)?
The pIC50 was 6.39.

`CCOC(=O)C1CC1CN1CCC(N2CCC(c3ccc4[nH]c(-c5ccc(OC)c(OC)c5)c(C)c4c3)CC2)CC1` (stereo not shown) [Example 60, ethyl 2-((4-(2-(3,4-dimethoxyphenyl)-3-methyl-1H-indol-5-yl)-[1,4′-bipiperidin]-1′-yl)methyl)cyclopropane-1-carboxylate] was tested. Which pIC50 (human TLR9) did it give?
The pIC50 was 6.95.

And the pIC50 (human TLR7)?
Its pIC50 is 6.57.

How did the pIC50 (human TLR9) turn out when `COc1ccc(-c2[nH]c3ccc(C4CCN(C5CCN(C6CCC6)CC5)CC4)cc3c2C)cc1OC` [Example 61, 5-(1′-cyclobutyl-[1,4′-bipiperidin]-4-yl)-2-(3,4-dimethoxyphenyl)-3-methyl-1H-indole] was run?
The pIC50 was 6.26.

What about the pIC50 (human TLR7) of the same molecule?
Its pIC50 is 5.80.

With `CCCN1CCC(N2CCC(c3ccc4[nH]c(-c5ccc(OC)c(OC)c5)c(C)c4c3)CC2)CC1` [Example 63, 2-(3,4-dimethoxyphenyl)-3-methyl-5-(1′-propyl-[1,4′-bipiperidin]-4-yl)-1H-indole] as the molecule, how does the pIC50 (human TLR9) read?
Its pIC50 is 6.88.

And the pIC50 (human TLR7)?
Its pIC50 is 6.49.

How did the pIC50 (human TLR9) turn out when `COc1ccc(-c2[nH]c3ccc(C4CCN(C5CCN(C6CCCC(C)C6)CC5)CC4)cc3c2C)cc1OC` (stereo not shown) [Example 67, 2-(3,4-dimethoxyphenyl)-3-methyl-5-(1′-(3-methylcyclohexyl)-[1,4′-bipiperidin]-4-yl)-1H-indole] was run?
Its pIC50 is 7.15.

What about the pIC50 (human TLR7) of the same molecule?
Its pIC50 is 5.71.

With `COc1ccc(-c2[nH]c3ccc(C4CCN(C5CCN(CCCC(=O)O)CC5)CC4)cc3c2C)cc1OC` [Example 70, 4-(4-(2-(3,4-dimethoxyphenyl)-3-methyl-1H-indol-5-yl)-[1,4′-bipiperidin]-1′-yl)butanoic acid] as the molecule, how does the pIC50 (human TLR9) read?
Its pIC50 is 5.64.

What about the pIC50 (human TLR7) of the same molecule?
The pIC50 was 5.43.

`CCC(C)N1CCC(N2CCC(c3ccc4[nH]c(-c5ccc(OC)c(OC)c5)c(C)c4c3)CC2)CC1` (stereo not shown) [Example 71, 5-(1′-(sec-butyl)-[1,4′-bipiperidin]-4-yl)-2-(3,4-dimethoxyphenyl)-3-methyl-1H-indole] was tested. Which pIC50 (human TLR9) did it give?
Its pIC50 is 7.01.

What about the pIC50 (human TLR7) of the same molecule?
The pIC50 was 6.27.

How did the pIC50 (human TLR9) turn out when `COc1ccc(-c2[nH]c3ccc(C4CCN(C5CCN(C6CCCC(C(F)(F)F)C6)CC5)CC4)cc3c2C)cc1OC` (stereo not shown) [Example 73] was run?
Its pIC50 is 7.00.

And the pIC50 (human TLR7)?
Its pIC50 is 5.29.

With `COc1ccc(-c2[nH]c3ccc(C4CCN(C5CCN(CCC(C)C)CC5)CC4)cc3c2C)cc1OC` [Example 77, 2-(3,4-dimethoxyphenyl)-5-(1′-isopentyl-[1,4′-bipiperidin]-4-yl)-3-methyl-1H-indole] as the molecule, how does the pIC50 (human TLR9) read?
Its pIC50 is 6.66.

And the pIC50 (human TLR7)?
The pIC50 was 6.28.

With `COc1ccc(-c2[nH]c3ccc(C4CCN(C5CCN(C6CCCC(C(F)(F)F)C6)CC5)CC4)cc3c2C)cc1OC` (stereo not shown) [Example 79] as the molecule, how does the pIC50 (human TLR9) read?
Its pIC50 is 6.91.

And the pIC50 (human TLR7)?
The pIC50 was 5.63.

With `COc1ccc(-c2[nH]c3ccc(C4CCN(C5CCN(C6CCN(C)CC6)CC5)CC4)cc3c2C)cc1OC` [Example 81, 2-(3,4-dimethoxyphenyl)-3-methyl-5-(1″-methyl-[1,4′:1′,4″-terpiperidin]-4-yl)-1H-indole] as the molecule, how does the pIC50 (human TLR9) read?
The pIC50 was 6.72.

What about the pIC50 (human TLR7) of the same molecule?
Its pIC50 is 6.27.

`CCCCN1CCC(N2CCC(c3ccc4[nH]c(-c5ccc(OC)c(OC)c5)c(C)c4c3)CC2)CC1` [Example 82, 5-(1′-butyl-[1,4′-bipiperidin]-4-yl)-2-(3,4-dimethoxyphenyl)-3-methyl-1H-indole] was tested. Which pIC50 (human TLR9) did it give?
Its pIC50 is 6.78.

What about the pIC50 (human TLR7) of the same molecule?
Its pIC50 is 6.84.

How did the pIC50 (human TLR9) turn out when `COc1ccc(-c2[nH]c3ccc(C4CCN(C5CCN(C6COC6)CC5)CC4)cc3c2C)cc1OC` [Example 83, 2-(3,4-dimethoxyphenyl)-3-methyl-5-(1′-(oxetan-3-yl)-[1,4′-bipiperidin]-4-yl)-1H-indole] was run?
Its pIC50 is 5.81.

And the pIC50 (human TLR7)?
Its pIC50 is 5.58.

With `COc1ccc(-c2[nH]c3ccc(C4CCN(C5CCN(CC(C)C)C5)CC4)cc3c2C)cc1OC` (stereo not shown) [Example 85, 2-(3,4-dimethoxyphenyl)-5-(1-(1-isobutylpyrrolidin-3-yl)piperidin-4-yl)-3-methyl-1H-indole] as the molecule, how does the pIC50 (human TLR9) read?
The pIC50 was 6.61.

What about the pIC50 (human TLR7) of the same molecule?
Its pIC50 is 6.04.

How did the pIC50 (human TLR9) turn out when `COc1ccc(-c2[nH]c3ccc(C4CCN(C5CCCN(C(C)C)CC5)CC4)cc3c2C)cc1OC` (stereo not shown) [Example 92, 2-(3,4-dimethoxyphenyl)-5-(1-(1-isopropylazepan-4-yl)piperidin-4-yl)-3-methyl-1H-indole] was run?
The pIC50 was 7.23.

What about the pIC50 (human TLR7) of the same molecule?
Its pIC50 is 6.24.

How did the pIC50 (human TLR9) turn out when `COc1ccc(-c2[nH]c3ccc(C4CCN(C5CCCN(C6COC6)CC5)CC4)cc3c2C)cc1OC` (stereo not shown) [Example 96, 2-(3,4-dimethoxyphenyl)-3-methyl-5-(1-(1-(oxetan-3-yl)azepan-4-yl)piperidin-4-yl)-1H-indole] was run?
The pIC50 was 6.73.

What about the pIC50 (human TLR7) of the same molecule?
Its pIC50 is 5.60.

`COc1ccc(-c2[nH]c3ccc(C4CCN(CCNC(=O)OC(C)(C)C)CC4)cc3c2C)cc1OC` [Example 99, tert-butyl (2-(4-(2-(3,4-dimethoxyphenyl)-3-methyl-1H-indol-5-yl)piperidin-1-yl)ethyl)carbamate] was tested. Which pIC50 (human TLR9) did it give?
The pIC50 was 5.99.

What about the pIC50 (human TLR7) of the same molecule?
The pIC50 was 6.03.

What does the source list for `COc1ccc(-c2[nH]c3ccc(C4CCN(CCN)CC4)cc3c2C)cc1OC` [Example 100, 2-(4-(2-(3,4-dimethoxyphenyl)-3-methyl-1H-indol-5-yl)piperidin-1-yl)ethan-1-amine]?
pIC50 (human TLR9): 6.27; pIC50 (human TLR7): 6.76

With `COc1ccc(-c2[nH]c3ccc(C4CCN(CC5CCCCN5)CC4)cc3c2C)cc1OC` (stereo not shown) [Example 101, 2-(3,4-dimethoxyphenyl)-3-methyl-5-(1-(piperidin-2-ylmethyl)piperidin-4-yl)-1H-indole] as the molecule, how does the pIC50 (human TLR9) read?
Its pIC50 is 6.68.

And the pIC50 (human TLR7)?
Its pIC50 is 5.75.

With `CNCCCN1CCC(c2ccc3[nH]c(-c4ccc(OC)c(OC)c4)c(C)c3c2)CC1` [Example 102, 3-(4-(2-(3,4-dimethoxyphenyl)-3-methyl-1H-indol-5-yl)piperidin-1-yl)-N-methylpropan-1-amine] as the molecule, how does the pIC50 (human TLR9) read?
The pIC50 was 6.42.

What about the pIC50 (human TLR7) of the same molecule?
Its pIC50 is 6.25.
